Active and inactive are the calls of the source. The rule behind the calls is not given here.
Legend:
[1] = target: Matrix metalloproteinase-14 (Homo sapiens, UniProt P50281)
Description: Competitive inhibition of human MMP14 using fluorogenic substrate by Dixon plot analysis

Liver = assay: Half life in rat liver S9 fraction at 10 uM by UPLC analysis; assay type: ADME, subcellular; settings: s9, 10 µM
Stromelysin-1 [2] = target: T1, Stromelysin-1 (Homo sapiens, UniProt P08254)
Target sequence in this assay (P08254 whole entry): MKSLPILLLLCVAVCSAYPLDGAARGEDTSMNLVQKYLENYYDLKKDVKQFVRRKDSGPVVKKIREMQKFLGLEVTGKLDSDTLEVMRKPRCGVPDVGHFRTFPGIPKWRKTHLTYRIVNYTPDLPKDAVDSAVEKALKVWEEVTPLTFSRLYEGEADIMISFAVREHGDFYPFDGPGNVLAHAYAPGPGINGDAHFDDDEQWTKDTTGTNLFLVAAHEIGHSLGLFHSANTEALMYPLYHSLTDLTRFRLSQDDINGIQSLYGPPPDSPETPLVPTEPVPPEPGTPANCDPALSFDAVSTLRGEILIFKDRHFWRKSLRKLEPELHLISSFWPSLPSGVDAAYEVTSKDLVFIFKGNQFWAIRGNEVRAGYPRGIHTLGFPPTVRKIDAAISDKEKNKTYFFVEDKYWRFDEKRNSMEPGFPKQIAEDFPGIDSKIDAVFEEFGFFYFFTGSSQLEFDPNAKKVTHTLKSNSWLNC
Description: Competitive inhibition of human MMP3 using fluorogenic substrate by Dixon plot analysis

[3] = target: Matrix metalloproteinase-9 (Homo sapiens, UniProt P14780)
Description: Competitive inhibition of human MMP9 using fluorogenic substrate by Dixon plot analysis

[4] = target: 72 kDa type IV collagenase (Homo sapiens, UniProt P08253)
72 kDa type IV collagenase, sequence (P08253 whole entry): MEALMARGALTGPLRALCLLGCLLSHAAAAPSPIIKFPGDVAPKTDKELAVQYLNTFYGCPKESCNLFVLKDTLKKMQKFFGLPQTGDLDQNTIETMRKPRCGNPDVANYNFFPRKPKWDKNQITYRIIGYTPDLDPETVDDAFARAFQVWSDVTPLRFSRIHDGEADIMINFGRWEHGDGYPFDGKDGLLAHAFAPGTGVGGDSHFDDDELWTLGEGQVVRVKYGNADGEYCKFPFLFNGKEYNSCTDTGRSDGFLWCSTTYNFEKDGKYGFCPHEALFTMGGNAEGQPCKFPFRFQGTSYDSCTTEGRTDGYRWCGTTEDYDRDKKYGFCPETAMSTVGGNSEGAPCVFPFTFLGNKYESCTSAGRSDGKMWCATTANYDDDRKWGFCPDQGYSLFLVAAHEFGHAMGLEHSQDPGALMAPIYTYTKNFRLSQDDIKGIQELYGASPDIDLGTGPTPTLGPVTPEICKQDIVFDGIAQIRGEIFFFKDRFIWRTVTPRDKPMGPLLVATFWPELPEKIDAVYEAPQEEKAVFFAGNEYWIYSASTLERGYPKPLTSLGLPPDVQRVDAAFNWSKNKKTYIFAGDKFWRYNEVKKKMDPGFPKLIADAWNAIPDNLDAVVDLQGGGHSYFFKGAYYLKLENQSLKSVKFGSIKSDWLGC
Description: Competitive inhibition of human MMP2 using fluorogenic substrate by Dixon plot analysis

[5] = target: T2, Matrilysin (Homo sapiens) (UniProt P09237); assay: Competitive inhibition of human MMP7 using fluorogenic substrate at 20 uM by Dixon plot analysis
T2 sequence (whole entry): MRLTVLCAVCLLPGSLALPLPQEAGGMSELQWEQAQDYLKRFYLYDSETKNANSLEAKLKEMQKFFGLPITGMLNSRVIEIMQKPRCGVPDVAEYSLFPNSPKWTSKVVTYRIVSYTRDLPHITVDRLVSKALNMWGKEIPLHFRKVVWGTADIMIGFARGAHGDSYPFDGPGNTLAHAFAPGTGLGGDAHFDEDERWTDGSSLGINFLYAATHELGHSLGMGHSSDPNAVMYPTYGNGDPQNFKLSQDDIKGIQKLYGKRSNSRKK

Stromelysin-1 [6] = target: T1, Stromelysin-1; assay: Competitive inhibition of human MMP3 using fluorogenic substrate at 20 uM by Dixon plot analysis
Target sequence in this assay (P08254 100-477 limits assumed): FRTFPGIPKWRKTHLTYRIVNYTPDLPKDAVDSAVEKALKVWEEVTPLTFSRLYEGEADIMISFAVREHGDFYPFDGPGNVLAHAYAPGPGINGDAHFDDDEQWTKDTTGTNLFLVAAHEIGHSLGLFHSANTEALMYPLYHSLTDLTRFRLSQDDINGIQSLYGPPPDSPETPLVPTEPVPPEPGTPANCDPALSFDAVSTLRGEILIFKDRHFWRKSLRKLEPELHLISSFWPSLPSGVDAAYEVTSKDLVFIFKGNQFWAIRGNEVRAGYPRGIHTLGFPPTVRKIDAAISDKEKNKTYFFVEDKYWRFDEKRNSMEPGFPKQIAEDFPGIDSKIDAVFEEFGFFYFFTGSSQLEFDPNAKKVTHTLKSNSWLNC

[7] = target: T3, Interstitial collagenase (Homo sapiens) (UniProt P03956); assay: Competitive inhibition of human MMP1 using fluorogenic substrate at 20 uM by Dixon plot analysis
T3 sequence (whole entry): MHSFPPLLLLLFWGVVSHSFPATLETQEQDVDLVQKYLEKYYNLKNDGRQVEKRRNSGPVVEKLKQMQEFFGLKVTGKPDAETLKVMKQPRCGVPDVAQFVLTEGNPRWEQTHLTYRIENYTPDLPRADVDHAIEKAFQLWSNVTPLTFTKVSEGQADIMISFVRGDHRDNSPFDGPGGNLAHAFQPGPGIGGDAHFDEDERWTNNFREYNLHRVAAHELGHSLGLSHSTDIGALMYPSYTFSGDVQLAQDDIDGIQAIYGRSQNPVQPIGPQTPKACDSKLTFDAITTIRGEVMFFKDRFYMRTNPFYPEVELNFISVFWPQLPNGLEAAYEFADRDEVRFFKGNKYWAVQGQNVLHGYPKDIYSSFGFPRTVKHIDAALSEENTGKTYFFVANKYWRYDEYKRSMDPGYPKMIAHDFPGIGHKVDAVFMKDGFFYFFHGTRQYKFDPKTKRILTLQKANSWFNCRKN

[8] = target: T2, Matrilysin (Homo sapiens); assay: Competitive inhibition of human MMP7 using fluorogenic substrate at 125 uM by Dixon plot analysis
[9] = target: T3, Interstitial collagenase (Homo sapiens); assay: Competitive inhibition of human MMP1 using fluorogenic substrate at 100 uM by Dixon plot analysis
Stromelysin-1 [10] = target: T1, Stromelysin-1; assay: Competitive inhibition of human MMP3 using fluorogenic substrate at 60 uM by Dixon plot analysis
Target sequence in this assay (P08254 100-477 limits assumed): as the sequence (P08254 100-477 limits assumed) above

[11] = target: T2, Matrilysin (Homo sapiens); assay: Competitive inhibition of human MMP7 using fluorogenic substrate at 10 uM by Dixon plot analysis
[12] = target: T3, Interstitial collagenase (Homo sapiens); assay: Competitive inhibition of human MMP1 using fluorogenic substrate at 60 uM by Dixon plot analysis
Liver microsomes [13] = assay: Drug metabolism in rat liver microsomes assessed as 4-(4-(thiiran-2-ylmethylsulfonyl)phenoxy)benzaldehyde formation at 50 uM after 15 mins by tandem MS analysis; assay type: ADME, Microsome; settings: 0.25 h
Liver microsomes [14] = assay: Drug metabolism in rat liver microsomes assessed as 4-(4-(thiiran-2-ylmethylsulfonyl)phenoxy)benzoic acid formation at 50 uM after 15 mins by tandem MS analysis; assay type: ADME, Microsome; settings: 0.25 h
Interstitial collagenase = target: T4, Interstitial collagenase (Homo sapiens, UniProt P03956)
T4 sequence (P03956 whole entry): T3 sequence (whole entry)
Description: Competitive inhibition of human MMP1 using fluorogenic substrate by Dixon plot analysis

Liver microsomes [15] = assay: Drug metabolism in rat liver microsomes assessed as 4-(4-(hydroxymethyl)phenoxy)benzenesulfinic acid formation at 50 uM after 15 mins by tandem MS analysis; assay type: ADME, Microsome; settings: 0.25 h
Matrilysin = target: T5, Matrilysin (Homo sapiens, UniProt P09237)
T5 sequence (P09237 whole entry): T2 sequence (whole entry)
Description: Competitive inhibition of human MMP7 using fluorogenic substrate by Dixon plot analysis

[16] = target: T3, Interstitial collagenase (Homo sapiens); assay: Competitive inhibition of human MMP1 using fluorogenic substrate at 50 uM by Dixon plot analysis
[17] = target: T2, Matrilysin (Homo sapiens); assay: Competitive inhibition of human MMP7 using fluorogenic substrate at 75 uM by Dixon plot analysis

Matrix metalloproteinase-9, sequence (P14780 whole entry): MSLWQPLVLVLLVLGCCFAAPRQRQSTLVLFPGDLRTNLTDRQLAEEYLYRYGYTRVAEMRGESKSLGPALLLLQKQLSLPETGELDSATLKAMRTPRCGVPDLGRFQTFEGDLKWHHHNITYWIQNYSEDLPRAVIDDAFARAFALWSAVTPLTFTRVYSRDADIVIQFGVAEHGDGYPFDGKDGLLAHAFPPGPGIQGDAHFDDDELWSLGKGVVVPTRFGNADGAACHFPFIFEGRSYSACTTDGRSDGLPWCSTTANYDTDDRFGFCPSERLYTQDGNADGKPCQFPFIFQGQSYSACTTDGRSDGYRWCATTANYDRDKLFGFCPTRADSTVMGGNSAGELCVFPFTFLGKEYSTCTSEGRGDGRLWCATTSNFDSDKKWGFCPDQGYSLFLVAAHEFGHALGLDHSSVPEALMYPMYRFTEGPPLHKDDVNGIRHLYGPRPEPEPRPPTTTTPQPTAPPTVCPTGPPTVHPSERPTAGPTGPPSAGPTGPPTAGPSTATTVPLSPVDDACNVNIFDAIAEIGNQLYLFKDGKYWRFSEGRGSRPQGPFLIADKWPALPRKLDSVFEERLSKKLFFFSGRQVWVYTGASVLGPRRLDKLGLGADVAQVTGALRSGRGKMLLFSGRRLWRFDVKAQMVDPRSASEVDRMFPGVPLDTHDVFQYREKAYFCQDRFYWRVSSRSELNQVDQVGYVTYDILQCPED

SMILES	Ki [1] [µM]	t1/2 (Liver) [min]	Ki (Stromelysin-1 [2]) [µM]	Ki [3] [µM]	Ki [4] [µM]	inhibition [5]	further results
O=S(=O)(CC1CS1)c1ccc(Oc2ccccc2)cc1 (stereo not given)	0.037	4.4	–	–	–	–	–
CS(=O)(=O)Oc1ccc(Oc2ccc(S(=O)(=O)CC3CS3)cc2)cc1 (racemic)	–	27	0.575	–	–	–	–
O=S(=O)(CC1CS1)c1ccc(Oc2ccc(F)cc2)cc1 (racemic)	0.58	3.7	–	0.044	0.061	9%	inhibition (Stromelysin-1 [6]): 50%; inhibition [7]: inactive
O=S(=O)(CC1CS1)c1ccc(Oc2cccc(F)c2)cc1 (racemic)	0.19	2.9	27	3	0.45	–	inhibition [8]: inactive; inhibition [9]: 7%
O=S(=O)(CC1CS1)c1ccc(Oc2ccc(I)cc2)cc1 (racemic)	–	7.2	–	0.29	0.6	–	inhibition (Stromelysin-1 [10]): 18%; inhibition [11]: inactive; inhibition [12]: inactive
O=S(=O)(CC1CS1)c1ccc(Oc2ccc(CO)cc2)cc1 (racemic)	0.215	13	4.1	0.39	0.078	–	Drug metabolism (Liver microsomes [13]): Active; Drug metabolism (Liver microsomes [14]): Active; Ki (Interstitial collagenase): 205 µM; Drug metabolism (Liver microsomes [15]): Active; Ki (Matrilysin): 48.5 µM
O=S(=O)(CC1CS1)c1ccc(Oc2ccc(O)cc2)cc1 (racemic)	0.09	23	2.2	–	0.006	–	Ki (Interstitial collagenase): 128 µM; Ki (Matrilysin): 31 µM
CC(C)Oc1ccc(Oc2ccc(S(=O)(=O)CC3CS3)cc2)cc1 (racemic)	0.28	–	17	0.47	0.3	30%	inhibition [16]: 11%
COCOc1ccc(Oc2ccc(S(=O)(=O)CC3CS3)cc2)cc1 (racemic)	0.14	7.7	12	0.16	0.18	–	inhibition [17]: 19%; inhibition [9]: 6%
O=S(=O)(CC1CS1)c1ccc(Oc2ccc(OC(F)(F)F)cc2)cc1 (racemic)	5.08	7.3	–	0.93	0.11	inactive	inhibition (Stromelysin-1 [6]): 14%; inhibition [7]: 3%
